Experimental data published in PMC11446937, “Bacteria from the Amycolatopsis genus associated with a toxic bird secrete protective secondary metabolites” (Nature Communications, 2024).

Experiments:
[1] = system: bacterial and fungal indicator strains; experiment: Disc-diffusion antimicrobial activity, indicator strains overall; format: cell-based; conditions: disc-diffusion assays of isolated compounds against indicator strains incl. K. rhizophila and C. albicans
Description: For more experimental details, see Supplementary Methods and Supplementary Tables 16–18.
Droplet-collapsing test of lipopetides.
Pure compounds were dissolved in water (final concentration 10 mM). Then, 20 µl of the solutions were placed on a hydrophobic surface (parafilm ‘M’). Tensioactive properties were determined by the observation of collapsed […]
33,34 Tween-20 (10 mM) was used as tensioactive positive control. For better visualization, 0.0025% crystal violet was added to the droplet, having no effect on the […]
Supplementary Figure 88. Droplet-collapsing assay testing the tensioactive properties of lipopeptides (n=3). […]
epidermidis DSM103867, as well as the skin pathogenic yeast C. albicans SC5314. […] Antimicrobial activity was determined by measuring the inhibition zone surrounding the disc in mm. […]
Pure compounds (1 mg/mL in DMSO or 50% MeOH) were tested for their antimicrobial activity against a variety of bacterial and fungal indicator strains: B. subtilis 6633 (Bs), S. aureus SG511 (Sa1), E. coli SG458 (Ec), P. aeruginosa K799/61 (Pa), S. aureus 134/94 (MRSA) (Sa2), E. faecalis 1528 (VRSA) (Ef), Mycobacterium vaccae 10670 (Mv), Sporobomyces salmonicolor 549 (Ss), C. albicans C.A. (Ca), and Penicillium notatum JP36 (Pn). […] Antimicrobial activity was determined by measuring the inhibition zone surrounding the disc in mm (n=3). […]

P. aeruginosa K799/61 = conditions: Suppl. Table 17; disc diffusion; 1 mg/mL in DMSO, 50 µl (50 µg) per disc; Cip 5 µg/mL (H2O/HCl); DMSO solvent control itself 12P; n=3
S. aureus 134/94 (MRSA) = experiment: Disc-diffusion antimicrobial assay, clinically relevant indicator strains; conditions: Suppl. Table 17, 1 mg/mL in DMSO, 50 µl (50 µg) per disc, Cip 5 µg/mL (H2O/HCl), DMSO solvent control 0, n=3
E. coli SG458 = experiment: as above; conditions: Suppl. Table 17, 1 mg/mL in DMSO, 50 µl (50 µg) per disc, Cip 5 µg/mL (H2O/HCl), DMSO solvent control itself 12P, n=3
E. faecalis 1528 = experiment: as above; conditions: Suppl. Table 17, 1 mg/mL in DMSO, 50 µl (50 µg) per disc, Cip 5 µg/mL (H2O/HCl), DMSO solvent control itself 12p, n=3
S. aureus SG511 = experiment: as above; conditions: Suppl. Table 17, 1 mg/mL in DMSO, 50 µl (50 µg) per disc, Cip 5 µg/mL (H2O/HCl), DMSO solvent control itself 11P, n=3
B. subtilis 6633 = experiment: as above; conditions: Suppl. Table 17, 1 mg/mL in DMSO, 50 µl (50 µg) per disc, Cip 5 µg/mL (H2O/HCl), DMSO solvent control itself 12P, n=3
C. albicans C.A. = experiment: as above; format: cell-based; conditions: Suppl. Table 17; disc diffusion; 1 mg/mL in DMSO, 50 µl (50 µg) per disc; Amph B 10 µg/mL (DMSO/H2O); DMSO solvent control 0; n=3
Description: (§1) Disc-diffusion antimicrobial activity assays against clinically relevant indicator strains.
(§2) Pure compounds (1 mg/mL in DMSO or 50% MeOH) were tested for their antimicrobial activity against a variety of bacterial and fungal indicator strains: B. subtilis 6633 (Bs), S. aureus SG511 (Sa1), E. coli SG458 (Ec), P. aeruginosa K799/61 (Pa), S. aureus 134/94 (MRSA) (Sa2), E. faecalis 1528 (VRSA) (Ef), Mycobacterium vaccae 10670 (Mv), Sporobomyces salmonicolor 549 (Ss), C. albicans C.A. (Ca), and Penicillium notatum JP36 (Pn). On each disc, 50 µl compound solution (50 µg) were applied. Antimicrobial activity was determined by measuring the inhibition zone surrounding the disc in mm (n=3).
(§3) Bs: B. subtilis 663, Sa1: S. aureus SG511, Ec: E. coli SG458, Pa: P. aeruginosa K799/61, Sa2: S. aureus 134/94 (MRSA), Ef: E. faecalis 1528 (VRSA), Mv: M. vaccae 10670, Ss: S. salmonicolor 549, Ca: C. albicans C.A., Pn: P. notatum JP36. P: colonies in the inhibition zone, p: single colonies in the inhibition zone. A: no to low inhibition, n.t.: not tested.
(§4) B. subtilis 663, Sa1: S. aureus SG511, Ec: E. coli SG458, Ca: C. albicans C.A., P: colonies in the inhibition zone, […]

[2] = system: Sporobomyces salmonicolor 549; experiment: as above; format: cell-based; conditions: Suppl. Table 17, 1 mg/mL in DMSO, 50 µl (50 µg) per disc, Amph B 10 µg/mL (DMSO/H2O), DMSO solvent control itself 13P, n=3
Description: as §1, §2, §3, §4

Penicillium notatum JP36 = experiment: as above; format: cell-based; conditions: Suppl. Table 17, 1 mg/mL in DMSO, 50 µl (50 µg) per disc, Amph B 10 µg/mL (DMSO/H2O), DMSO solvent control itself 12P, n=3
Description: as §1, §2, §3, §4

[3] = system: Mycobacterium vaccae 10670; experiment: as above; conditions: Suppl. Table 17, 1 mg/mL in DMSO, 50 µl (50 µg) per disc, Cip 5 µg/mL (H2O/HCl), DMSO solvent control itself 11P, n=3
SARS-CoV2 Mpro = conditions: 200 µM; fluorimetric, 10 min; mean ± standard deviation, n=3
rhodesain = conditions: 200 µM
cathepsin B = experiment: Fluorimetric protease inhibition assay; format: biochemical; conditions: 200 µM, 10 min, mean ± standard deviation, n=3
ZIKV NS2B-NS3 = conditions: 200 µM
P. monteilii DSM1388 = experiment: Disc-diffusion antimicrobial assay, ecologically relevant indicator strains; format: cell-based, Pseudomonas monteilii; conditions: Suppl. Table 16, pure compounds 10 mg/mL in DMSO, 5 µl per disc, control Cip 5 µg/mL (HCl), DMSO control 0, n=1
B. licheniformis DSM13 = experiment: as above; format: cell-based, Bacillus licheniformis; conditions: Suppl. Table 16, pure compounds 10 mg/mL in DMSO, 5 µl per disc, control Cip 5 µg/mL (HCl), DMSO control 0, n=1
urokinase (uPA) = experiment: Fluorimetric protease inhibition assay; format: biochemical; conditions: 200 µM, 10 min, mean ± standard deviation, n=3
cruzain = experiment: Fluorimetric protease inhibition assay; format: biochemical, Trypanosoma cruzi; conditions: 200 µM, 10 min, mean ± standard deviation, n=3
C. albicans SC5314 = experiment: Disc-diffusion antimicrobial assay, ecologically relevant indicator strains; format: cell-based, Candida albicans; conditions: Suppl. Table 16, pure compounds 10 mg/mL in DMSO, 5 µl per disc, control Amph B 10 µg/mL (DMSO/H2O), DMSO control 0, n=1
DENV2 NS2B-NS3 = experiment: Fluorimetric protease inhibition assay; format: biochemical; conditions: 200 µM, 10 min, mean ± standard deviation, n=3
SARS-CoV PLpro = conditions: 200 µM; fluorimetric, 10 min; mean ± standard deviation, n=3
K. rhizophila DSM11926 = experiment: Disc-diffusion antimicrobial assay, ecologically relevant indicator strains; format: cell-based, Kocuria rhizophila; conditions: Suppl. Table 16, pure compounds 10 mg/mL in DMSO, 5 µl per disc, control Cip 5 µg/mL (HCl), DMSO control 0, n=1
cathepsin L = experiment: Fluorimetric protease inhibition assay; format: biochemical; conditions: 200 µM, 10 min, mean ± standard deviation, n=3
sortase A (SrtA) = conditions: 200 µM
[4] = system: B. thuringiensis DSM104061; experiment: Disc-diffusion antimicrobial assay, ecologically relevant indicator strains; format: cell-based, Bacillus thuringiensis; conditions: Suppl. Table 16, pure compounds 10 mg/mL in DMSO, 5 µl per disc, control Cip 5 µg/mL (HCl), DMSO control 0, n=1

| Compound | antimicrobial activity (in words) [1] | inhibition zone, Pa (P. aeruginosa K799/61) | inhibition zone, Sa2 (S. aureus 134/94 (MRSA)) [mm] | inhibition zone, Ec (E. coli SG458) | inhibition zone, Ef (E. faecalis 1528) | inhibition zone, Sa1 (S. aureus SG511) [mm] | inhibition zone, Bs (B. subtilis 6633) [mm] | inhibition zone, Ca (C. albicans C.A.) [mm] | inhibition zone, Ss [2] | inhibition zone, Pn (Penicillium notatum JP36) | inhibition zone, Mv [3] | Protease inhibition rate, Mpro (SARS-CoV2) (SARS-CoV2 Mpro) [%] | Protease inhibition rate, Rhodesain (rhodesain) | Protease inhibition rate, Cathepsin B (cathepsin B) [%] | Protease inhibition rate, ZIKV (ZIKV NS2B-NS3) | inhibition zone, Pm (P. monteilii DSM1388) [mm] | inhibition zone, Bl (B. licheniformis DSM13) [mm] | Protease inhibition rate, uPA (urokinase (uPA)) [%] | Protease inhibition rate, Cruzain (cruzain) [%] | inhibition zone, Ca2 (C. albicans SC5314) [mm] | other results |
| --- | --- | --- | --- | --- | --- | --- | --- | --- | --- | --- | --- | --- | --- | --- | --- | --- | --- | --- | --- | --- | --- |
| C[C@H]1CN2C(=O)/C=C/C=C/C=C/[C@@](C)(O)C(O[C@@H]3OC[C@@H](O)[C@H](O)[C@H]3N)\C=C/C=C/C=C/C=C\[C@@H]2[C@@H]1O (stereo partly shown) [Compound 8, ciromicin A, reference compound] | antifungal and antibacterial effects | – | – | – | – | – | – | – | – | – | – | – | – | – | – | – | – | – | – | – | – |
| Demiguisin [Compound 7] | no antimicrobial effects | 0 mm | 0 | 0 mm | 0 mm | 0 | 0 | 0 | 0 mm | 0 mm | 0 mm | – | – | – | – | – | – | – | – | – | – |
| Pachycephalamide E [Compound 5] | – | 17P | 0 | 15P | 13p | 0 | 0 | 0 | 19p | 14p | – | 14.75 ± 7.06 | 48.22 ± 1.63 | 47.52 ± 9.52 | 22.71 ± 1.47 | 0 | 0 | 0 ± 0 | 43.80 ± 2.31 | 0 | Protease inhibition rate, DENV2 (DENV2 NS2B-NS3): 19.02 ± 6.12%; Protease inhibition rate, PLpro (SARS-CoV) (SARS-CoV PLpro): 0 ± 0%; inhibition zone, Kr (K. rhizophila DSM11926): 7 mm; Protease inhibition rate, Cathepsin L (cathepsin L): 47.31 ± 2.53%; Protease inhibition rate, SrtA (sortase A (SrtA)): 17.94 ± 1.28; inhibition zone, Bt [4]: 0 mm |
| Pachycephalamide F [Compound 6] | – | 18P | 0 | 13P | 13p | 0 | 0 | 0 | 23p | 13p | 13p | 6.92 ± 5.97 | 53.72 ± 0.31 | 57.57 ± 11.52 | 22.62 ± 1.19 | 0 | 0 | 0 ± 0 | 60.52 ± 3.73 | 0 | Protease inhibition rate, DENV2 (DENV2 NS2B-NS3): 18.47 ± 1.66%; Protease inhibition rate, PLpro (SARS-CoV) (SARS-CoV PLpro): 0 ± 0%; inhibition zone, Kr (K. rhizophila DSM11926): 10 mm; Protease inhibition rate, Cathepsin L (cathepsin L): 58.30 ± 6.91%; Protease inhibition rate, SrtA (sortase A (SrtA)): 20.39 ± 3.94; inhibition zone, Bt [4]: 0 mm |
